Assay results published in US6783541B2, “Methods for inhibiting or suppressing stenosis of arteriovenous access fistulas and grafts” (Miravant Medical Technologies, Inc., priority 2001, dated 2004).

What was measured:
[1] = Preliminary uptake studies by HPLC and fluorescence microscopy
[2] = system: stenosis in a canine model of prosthetic AV access graft; assay: PDT in a canine model of prosthetic AV access graft; format: in vivo, female mongrel dogs
Description: The work described below was undertaken to evaluate the effects of application of an embodiment of the method of the present invention on the suppression of stenosis in a canine model of prosthetic AV access graft.
Initial studies using light-treatment without MV6401 confirmed no effect on the stenosis. Bilateral femoral PTFE AV access grafts were implanted in four female mongrel dogs. MV6401 (2 mg/kg, IV) was given one hour prior to the operation, and PDT was administered using an endolumenal non-thermal balloon catheter light source immediately after AV access graft placement. The contralateral side received a sham balloon treatment without light activation. The animals were sacrificed four weeks after the treatment, at which time the grafts were harvested, sectioned and examined by histology. Venous anastomotic sites were graded by an individual blinded to the treatment parameters and graded on a categorical scale (0-5) of lesion progression. Thickness of the stenotic lesion was determined using computer morphometry.

- long term detrimental effects ([2]; PDT dose sufficient to substantially deplete cell population in vessel wall): no detrimental long term effects noted
Compound: C=Cc1c(C)c2[n]3c1=CC1=NC(=Cc4c(C)c5c([n]4[In]3[Cl])C(=C3N=C(C=2)[C@@H](C)[C@@H]3CCC(=O)OC)CC5=O)C(CC)=C1C [MV6401]
- incorporation of drug into tissue [1]: incorporation into stenotic lesions and surrounding vessel wall
- graft fibrosis grade at venous anastomotic site (categorical scale 0-5) ([2]; MV6401 2 mg/kg IV 1 h before operation, endolumenal balloon light, 4 weeks after treatment, sham side without light 2.25±0.08, P=0.02): 1.13±0.15
- thickness of the stenotic lesions at the venous anastomosis ([2]; MV6401 2 mg/kg IV plus light, 4 weeks after PDT, computer morphometry, sham side without light 1.51±0.11 mm, P=0.006): 0.49±0.06 mm
- acellularity in the vessel wall ([2]; PDT dose used (MV6401 2 mg/kg IV plus light)): substantial acellularity in the vessel wall
- AV access graft patency ([2]; four weeks after treatment): patent and fully functioning
